Reference: PubChem BioAssay (NCI)
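Step 1: Grow cells in 96-well plates. Step 2: Expose to compound for 48 hours at 5 concentrations. Step 3: Interpolate endpoints linearly; if unreached, use highest concentration. GI50 is the concentration that inhibits growth by half. At the TGI there is no net growth.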

What was measured:
Experiment in all cases: DTP human tumour cell line panel, 48 h
MCF7 breast = tested on: MCF7 breast
TK-10 renal = tested on: TK-10 renal
NCI-H460 lung = tested on: NCI-H460 lung
HCT-15 colon = tested on: HCT-15 colon
DU-145 prostate = tested on: DU-145 prostate
PC-3 prostate = tested on: PC-3 prostate
786-0 renal = tested on: 786-0 renal
CAKI-1 renal = tested on: CAKI-1 renal
HCT-116 colon = tested on: HCT-116 colon
HT29 colon = tested on: HT29 colon
U251 CNS = tested on: U251 CNS
M14 melanoma = tested on: M14 melanoma
K-562 leukemia = tested on: K-562 leukemia
ACHN renal = tested on: ACHN renal
MOLT-4 leukemia = tested on: MOLT-4 leukemia
UACC-257 melanoma = tested on: UACC-257 melanoma
SF-539 CNS = tested on: SF-539 CNS
SK-MEL-5 melanoma = tested on: SK-MEL-5 melanoma
LOX IMVI melanoma = tested on: LOX IMVI melanoma
A549 NSCLC = tested on: A549 NSCLC
HL-60(TB) leukemia = tested on: HL-60(TB) leukemia
OVCAR-4 ovarian = tested on: OVCAR-4 ovarian
MDA-MB-231 breast = tested on: MDA-MB-231 breast
T-47D breast = tested on: T-47D breast
IGROV1 ovarian = tested on: IGROV1 ovarian
HS 578T breast = tested on: HS 578T breast
SF-295 CNS = tested on: SF-295 CNS
MDA-MB-435 = tested on: MDA-MB-435
OVCAR-3 ovarian = tested on: OVCAR-3 ovarian
MALME-3M melanoma = tested on: MALME-3M melanoma
KM12 colon = tested on: KM12 colon
NCI/ADR-RES ovarian = tested on: NCI/ADR-RES ovarian
SNB-75 CNS = tested on: SNB-75 CNS
NCI-H522 lung = tested on: NCI-H522 lung
HOP-92 NSCLC = tested on: HOP-92 NSCLC
UO-31 renal = tested on: UO-31 renal
RPMI-8226 leukemia = tested on: RPMI-8226 leukemia
OVCAR-5 ovarian = tested on: OVCAR-5 ovarian
SK-MEL-2 melanoma = tested on: SK-MEL-2 melanoma
UACC-62 melanoma = tested on: UACC-62 melanoma
SN12C renal = tested on: SN12C renal
SNB-19 CNS = tested on: SNB-19 CNS
A498 renal = tested on: A498 renal
SR leukemia = tested on: SR leukemia
RXF 393 renal = tested on: RXF 393 renal
SF-268 CNS = tested on: SF-268 CNS
BT-549 breast = tested on: BT-549 breast
SK-MEL-28 melanoma = tested on: SK-MEL-28 melanoma
COLO 205 colon = tested on: COLO 205 colon
HCC-2998 colon = tested on: HCC-2998 colon
SW-620 colon = tested on: SW-620 colon
OVCAR-8 ovarian = tested on: OVCAR-8 ovarian
SK-OV-3 ovarian = tested on: SK-OV-3 ovarian
NCI-H226 lung = tested on: NCI-H226 lung
EKVX NSCLC = tested on: EKVX NSCLC
HOP-62 NSCLC = tested on: HOP-62 NSCLC

Molecule N/C(=N\c1nc2c(Br)cccc2s1)C(Br)Br has a GI50 (MCF7 breast) of 2.25 µM, a TGI (MCF7 breast) of 11.3 µM and a GI50 (TK-10 renal) of 15.9 µM. It also gave a TGI (TK-10 renal) of 32.2 µM, a GI50 (NCI-H460 lung) of 2.55 µM and a TGI (NCI-H460 lung) of 11.5 µM. The GI50 (HCT-15 colon) was 2.57 µM, the TGI (HCT-15 colon) was 11.5 µM and the GI50 (DU-145 prostate) was 3.84 µM. For the same molecule, the TGI (DU-145 prostate) was 16 µM, the GI50 (PC-3 prostate) was 8.68 µM and the TGI (PC-3 prostate) was 26.1 µM. It also gave a GI50 (786-0 renal) of 13.1 µM, a TGI (786-0 renal) of 35.2 µM and a GI50 (CAKI-1 renal) of 2.1 µM. For the same molecule, the TGI (CAKI-1 renal) was 8.98 µM, the GI50 (HCT-116 colon) was 2.27 µM and the TGI (HCT-116 colon) was 16.8 µM. For the same molecule, the GI50 (HT29 colon) was 2.91 µM, the TGI (HT29 colon) was 12.8 µM and the GI50 (U251 CNS) was 2.83 µM. The TGI (U251 CNS) was 12.1 µM, the GI50 (M14 melanoma) was 10.4 µM and the TGI (M14 melanoma) was 28.1 µM. The GI50 (K-562 leukemia) was 2.66 µM, the TGI (K-562 leukemia) was 52.7 µM and the GI50 (ACHN renal) was 2.98 µM. The TGI (ACHN renal) was 11.8 µM, the GI50 (MOLT-4 leukemia) was 3.9 µM and the TGI (MOLT-4 leukemia) was 27.3 µM. For the same molecule, the GI50 (UACC-257 melanoma) was 13.5 µM, the TGI (UACC-257 melanoma) was 28 µM and the GI50 (SF-539 CNS) was 3.7 µM. For the same molecule, the TGI (SF-539 CNS) was 15 µM, the GI50 (SK-MEL-5 melanoma) was 17.5 µM and the TGI (SK-MEL-5 melanoma) was 32 µM. It also gave a GI50 (LOX IMVI melanoma) of 0.307 µM, a TGI (LOX IMVI melanoma) of 1.29 µM and a GI50 (A549 NSCLC) of 7.76 µM. For the same molecule, the TGI (A549 NSCLC) was 21.9 µM, the GI50 (HL-60(TB) leukemia) was 7.38 µM and the TGI (HL-60(TB) leukemia) was 57.5 µM. The GI50 (OVCAR-4 ovarian) was 6.21 µM, the TGI (OVCAR-4 ovarian) was 30.6 µM and the GI50 (MDA-MB-231 breast) was 5.51 µM. The TGI (MDA-MB-231 breast) was 28 µM, the GI50 (T-47D breast) was 10.3 µM and the TGI (T-47D breast) was 36.1 µM. It also gave a GI50 (IGROV1 ovarian) of 10.4 µM, a TGI (IGROV1 ovarian) of 31.6 µM and a GI50 (HS 578T breast) of 7.24 µM. It also gave a TGI (HS 578T breast) of over 100 µM, a GI50 (SF-295 CNS) of 10.6 µM and a TGI (SF-295 CNS) of 25.9 µM. For the same molecule, the GI50 (MDA-MB-435) was 3.22 µM, the TGI (MDA-MB-435) was 13.7 µM and the GI50 (OVCAR-3 ovarian) was 4.19 µM. For the same molecule, the TGI (OVCAR-3 ovarian) was 16.6 µM, the GI50 (MALME-3M melanoma) was 8.53 µM and the TGI (MALME-3M melanoma) was 24.4 µM. For the same molecule, the GI50 (KM12 colon) was 4.29 µM, the TGI (KM12 colon) was 22.4 µM and the GI50 (NCI/ADR-RES ovarian) was 2.58 µM. It also gave a TGI (NCI/ADR-RES ovarian) of 9.81 µM, a GI50 (SNB-75 CNS) of 10.2 µM and a TGI (SNB-75 CNS) of 22.1 µM. The GI50 (NCI-H522 lung) was 6.16 µM, the TGI (NCI-H522 lung) was 21.7 µM and the GI50 (HOP-92 NSCLC) was 6.07 µM. For the same molecule, the TGI (HOP-92 NSCLC) was 29.4 µM, the GI50 (UO-31 renal) was 5.69 µM and the TGI (UO-31 renal) was 20.2 µM. For the same molecule, the GI50 (RPMI-8226 leukemia) was 2.97 µM, the TGI (RPMI-8226 leukemia) was 16.4 µM and the GI50 (OVCAR-5 ovarian) was 12 µM. For the same molecule, the TGI (OVCAR-5 ovarian) was 25.8 µM, the GI50 (SK-MEL-2 melanoma) was 15.4 µM and the TGI (SK-MEL-2 melanoma) was 34.7 µM. For the same molecule, the GI50 (UACC-62 melanoma) was 6.63 µM, the TGI (UACC-62 melanoma) was 24.3 µM and the GI50 (SN12C renal) was 11.7 µM. The TGI (SN12C renal) was 29.8 µM, the GI50 (SNB-19 CNS) was 10.4 µM and the TGI (SNB-19 CNS) was 27.8 µM. It also gave a GI50 (A498 renal) of 21.5 µM, a TGI (A498 renal) of 50.6 µM and a GI50 (SR leukemia) of 4.68 µM. The TGI (SR leukemia) was 31 µM, the GI50 (RXF 393 renal) was 2.74 µM and the TGI (RXF 393 renal) was 9.95 µM. For the same molecule, the GI50 (SF-268 CNS) was 4.67 µM, the TGI (SF-268 CNS) was 26.9 µM and the GI50 (BT-549 breast) was 11.2 µM. For the same molecule, the TGI (BT-549 breast) was 29.9 µM, the GI50 (SK-MEL-28 melanoma) was 11.1 µM and the TGI (SK-MEL-28 melanoma) was 23.3 µM. The GI50 (COLO 205 colon) was 3.49 µM, the TGI (COLO 205 colon) was 13.9 µM and the GI50 (HCC-2998 colon) was 3.62 µM. It also gave a TGI (HCC-2998 colon) of 14.3 µM, a GI50 (SW-620 colon) of 2.26 µM and a TGI (SW-620 colon) of 11.2 µM. The GI50 (OVCAR-8 ovarian) was 8.18 µM, the TGI (OVCAR-8 ovarian) was 24.1 µM and the GI50 (SK-OV-3 ovarian) was 10.8 µM. The TGI (SK-OV-3 ovarian) was 35.4 µM, the GI50 (NCI-H226 lung) was 11.3 µM and the TGI (NCI-H226 lung) was 38.6 µM. The GI50 (EKVX NSCLC) was 11.4 µM, the TGI (EKVX NSCLC) was 28 µM and the GI50 (HOP-62 NSCLC) was 10.5 µM. The TGI (HOP-62 NSCLC) was 27.8 µM.
